Values belong to the compound of their own block, whether it stands above or below them.
Tests used:
h5-LOX = target: T1, h5-LOX (Homo sapiens, UniProt P09917); assay: Selectivity assay; type: biochemical; details: read-out: inhibition of h5-LOX (positive control)
T1 sequence (P09917 1-674): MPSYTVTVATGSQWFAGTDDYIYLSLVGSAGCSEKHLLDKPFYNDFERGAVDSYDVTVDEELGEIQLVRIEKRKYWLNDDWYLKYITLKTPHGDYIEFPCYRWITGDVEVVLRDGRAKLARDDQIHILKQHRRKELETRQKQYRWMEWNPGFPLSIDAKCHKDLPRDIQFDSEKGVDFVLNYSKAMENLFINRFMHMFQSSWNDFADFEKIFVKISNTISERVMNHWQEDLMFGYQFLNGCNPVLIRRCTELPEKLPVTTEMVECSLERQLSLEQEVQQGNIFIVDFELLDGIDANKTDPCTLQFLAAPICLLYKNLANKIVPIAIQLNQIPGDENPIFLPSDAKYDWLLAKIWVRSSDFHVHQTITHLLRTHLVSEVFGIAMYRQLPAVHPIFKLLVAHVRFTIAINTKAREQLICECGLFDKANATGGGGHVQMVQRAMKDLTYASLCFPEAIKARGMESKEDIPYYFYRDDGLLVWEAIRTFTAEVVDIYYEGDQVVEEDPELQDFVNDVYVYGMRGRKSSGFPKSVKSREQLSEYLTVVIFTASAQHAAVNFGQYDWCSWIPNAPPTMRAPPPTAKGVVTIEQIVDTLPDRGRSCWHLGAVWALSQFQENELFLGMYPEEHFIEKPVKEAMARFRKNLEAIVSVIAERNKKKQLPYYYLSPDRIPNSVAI

h12/15-LOX [1] = target: T2, h12/15-LOX (Homo sapiens, UniProt P16050); assay: Lipoxygenase UV-Vis-based IC50 assay; type: biochemical; details: for loss of potency against h12/15-LOX relative to parent: SAR comparison of IC50 values
T2 sequence (P16050 1-662): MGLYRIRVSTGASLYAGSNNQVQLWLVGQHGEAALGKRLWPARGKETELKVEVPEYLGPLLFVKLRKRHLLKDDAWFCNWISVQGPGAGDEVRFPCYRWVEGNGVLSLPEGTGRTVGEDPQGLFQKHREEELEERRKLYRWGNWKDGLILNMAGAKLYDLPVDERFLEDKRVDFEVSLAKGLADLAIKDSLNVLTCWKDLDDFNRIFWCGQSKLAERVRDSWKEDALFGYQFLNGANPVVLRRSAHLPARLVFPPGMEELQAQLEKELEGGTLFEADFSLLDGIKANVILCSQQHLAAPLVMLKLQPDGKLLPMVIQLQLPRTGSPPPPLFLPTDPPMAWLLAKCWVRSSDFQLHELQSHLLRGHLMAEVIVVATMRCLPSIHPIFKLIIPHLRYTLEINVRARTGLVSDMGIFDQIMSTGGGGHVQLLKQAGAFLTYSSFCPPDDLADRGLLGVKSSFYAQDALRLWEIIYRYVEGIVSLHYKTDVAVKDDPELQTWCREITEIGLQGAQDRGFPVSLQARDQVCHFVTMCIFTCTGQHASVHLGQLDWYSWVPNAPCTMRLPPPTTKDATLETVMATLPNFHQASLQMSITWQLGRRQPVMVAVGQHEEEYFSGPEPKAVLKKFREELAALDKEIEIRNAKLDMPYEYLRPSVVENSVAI

[2] = test system: dog ortholog of 12/15-LOX; details: cited from earlier work
[3] = test system: rat ortholog of 12/15-LOX; details: cited from earlier work
[4] = cited from earlier work
[5] = cited from earlier work; remark: listed apart in the source
[6] = test system: rabbit reticulocyte 12/15-LOX; details: cited from earlier work
[7] = cited from earlier work; remark: listed apart in the source
HT-22 cells = assay: HT-22 cellular assay; type: cell-based; details: Mus musculus, HT-22, read-out: approximate cellular EC50 (ex vivo IC50) in HT-22
[8] = Solubility limit of inhibitor in enzyme assay; type: physicochemical; details: concentrations above 35 µM
h12/15-LOX [9] = target: T2, h12/15-LOX; assay: Pseudoperoxidase assay; details: 20 µM inhibitor, 20 µM 13-HpODE, 60 nM enzyme
h12/15-LOX [10] = target: T2, h12/15-LOX; assay: Steady-state inhibition kinetics

- inhibition at 20 µM (h5-LOX): 97%
Compound: CC(c1cc2ccccc2s1)N(O)C(N)=O (stereo not shown) [Zileuton]

- loss of potency against h12/15-LOX relative to parent (h12/15-LOX [1]): over 10 fold
Compound: Cc1ccc(O)c(-c2cc(C(=O)NCc3ccccc3)[nH]n2)c1 [Compound 3]

- loss of potency against h12/15-LOX relative to parent (h12/15-LOX [1]): greater than 15 fold
Compound: Cc1ccc(-c2cc(-c3ccc(C)cc3O)[nH]n2)cc1 [Compound 18]

- loss of potency against h12/15-LOX relative to parent (h12/15-LOX [1]): over 10 fold
Compound: COc1ccc(C(=O)c2c[nH]nc2-c2cc(C)ccc2O)cc1 [Compound 4]

Compound: O=C(Nc1ccc(F)cc1Cl)c1c[nH]nn1 [BLX-2477, N-(2-chloro-4-fluorophenyl)triazole-4-carboxamide]
- potency against dog ortholog [2]: did not exhibit potency
- potency against rat ortholog [3]: did not exhibit potency
- off-target effects in mini-pigs [4]: adverse off-target effects

Compound: CNc1oc(-c2cccc3ccccc23)nc1C#N [ML351, 5-(methylamino)-2-(naphthalene-1-yl)oxazole-4-carbonitrile]
- in vivo activity in mice [5]: exhibits in vivo activity

Compound: c1ccc2c(c1)SCc1c-2[nH]c2ccccc12 [PD-146176]
- IC50 [6]: 0.81 µM

Compound: O=C(OCC#CCSc1nnc(-c2cccc3ccccc23)o1)c1cccs1 [ML094, 4-(5-(Naphthalen-1-yl)-1,3,4-oxadiazol-2-ylthio)but-2-ynylthiophene-2-carboxylate]
- activity in cell-based assays [7]: lacks activity

- inhibition at 20 µM (h12/15-LOX [1]; read-out: %Inhibition (20 µM), 20 µM inhibitor, 10 µM AA, 0.01% Triton X-100): > 90%
- EC50 (HT-22 cells): ~10 µM
- solubility in assay buffer [8]: solubility problems
- degradation of 13-HpODE (redox activity) (h12/15-LOX [9]): not observed
- Ki (h12/15-LOX [10]): 6 ± 3.3 µM
- mode of inhibition (h12/15-LOX [10]; steady-state kinetics): mixed type inhibitor
Compound: Cc1ccc(O)c(-c2cc(-c3ccccc3C)[nH]n2)c1 [Compound 99089]
